The values below come from patent publication US11345678B2, “Benzopyrazole compound used as RHO kinase inhibitor” (MEDSHINE DISCOVERY INC., priority 2018, dated 2022).

SMILES strings stand for the structures.

For one series, the target named is ROCK2 (Homo sapiens (Human), UniProt O75116). The experiment in a line: In vitro inhibitory activity against ROCK protein kinase (33P-ATP filter-binding), ROCK2. As to conditions: 1 nM ROCK protein kinase, 20 μM Long S6 Kinase substrate peptide. It counts as biochemical. As for the experimental part: (§1) 1. In Vitro Evaluation of the Inhibitory Activity Against ROCK Protein Kinase
ROCK2, sequence (O75116 whole entry): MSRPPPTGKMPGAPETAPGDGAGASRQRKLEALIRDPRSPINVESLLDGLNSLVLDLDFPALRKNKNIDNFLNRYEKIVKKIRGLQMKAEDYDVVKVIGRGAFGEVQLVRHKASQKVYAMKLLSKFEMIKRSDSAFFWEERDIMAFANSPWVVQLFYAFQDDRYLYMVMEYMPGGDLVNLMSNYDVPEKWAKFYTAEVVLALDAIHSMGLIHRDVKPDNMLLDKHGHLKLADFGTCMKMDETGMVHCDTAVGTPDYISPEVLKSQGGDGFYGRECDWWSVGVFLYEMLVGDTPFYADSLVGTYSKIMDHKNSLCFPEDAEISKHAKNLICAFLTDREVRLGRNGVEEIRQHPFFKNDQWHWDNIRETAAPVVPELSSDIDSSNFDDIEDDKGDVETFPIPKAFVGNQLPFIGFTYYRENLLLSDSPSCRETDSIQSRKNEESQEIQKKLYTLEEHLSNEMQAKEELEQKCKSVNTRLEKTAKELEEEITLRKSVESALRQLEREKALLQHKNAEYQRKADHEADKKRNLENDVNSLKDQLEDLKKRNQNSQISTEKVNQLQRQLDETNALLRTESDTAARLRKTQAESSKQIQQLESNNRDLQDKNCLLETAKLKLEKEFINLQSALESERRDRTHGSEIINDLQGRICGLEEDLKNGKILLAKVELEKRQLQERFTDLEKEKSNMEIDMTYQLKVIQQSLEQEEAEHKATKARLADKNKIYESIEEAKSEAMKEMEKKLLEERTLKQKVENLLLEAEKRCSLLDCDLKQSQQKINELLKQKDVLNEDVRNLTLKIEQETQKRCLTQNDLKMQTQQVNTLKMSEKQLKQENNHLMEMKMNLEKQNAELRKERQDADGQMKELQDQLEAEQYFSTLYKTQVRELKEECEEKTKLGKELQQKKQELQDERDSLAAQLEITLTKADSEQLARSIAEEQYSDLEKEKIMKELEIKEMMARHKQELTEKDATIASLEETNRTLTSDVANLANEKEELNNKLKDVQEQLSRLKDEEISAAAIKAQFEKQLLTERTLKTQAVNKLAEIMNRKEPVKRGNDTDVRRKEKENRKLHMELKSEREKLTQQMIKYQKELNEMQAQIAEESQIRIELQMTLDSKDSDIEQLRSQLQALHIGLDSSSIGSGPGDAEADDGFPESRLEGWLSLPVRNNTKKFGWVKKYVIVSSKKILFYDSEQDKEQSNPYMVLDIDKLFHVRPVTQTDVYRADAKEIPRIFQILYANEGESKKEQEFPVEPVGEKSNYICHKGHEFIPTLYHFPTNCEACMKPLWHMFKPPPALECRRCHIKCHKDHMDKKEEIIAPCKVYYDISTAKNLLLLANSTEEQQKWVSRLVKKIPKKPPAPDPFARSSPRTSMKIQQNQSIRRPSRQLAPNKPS
(§2) Experimental purpose: to detect the inhibitory IC50 value of the compound against ROCK protein kinase.
(§3) Assay buffer solution: 20 mM 4-hydroxyethylpiperazine ethanesulfonic acid (pH 7.5), 10 mM magnesium chloride, 1 mM ethylene glycol-bis-(2-aminoethyl)tetraacetic acid, 0.02% polyethylene glycol monododecyl ether, 0.02 mg/mL bovine serum albumin, 0.1 mM sodium vanadate, 2 mM dithiothreitol, 1% DMSO.
(§4) The freshly prepared buffer solution was added to ROCK protein kinase substrate (Long S6 Kinase substrate peptide), at a concentration of 20 μM, then 1 nM ROCK protein kinase was added thereto and stirred evenly. Echo550 was used to add a series of DMSO dilutions containing the test compound (starting from 10 μM, serially diluted by 3 times), the solution was pre-incubated at room temperature for 20 minutes, then ^33P-ATP (radiation intensity 10 μCi/μL) was added to initiate the reaction, and the reaction was performed at room temperature for two hours. Then the solution was filtered by P81 ion exchange paper (Whatman #3698-915) and washed with 0.75% phosphoric acid. The radiation intensity was determined by Filter-Binding method.
(§5) The protein kinase inhibitory activity of the compound was expressed as the remaining protein kinase activity relative to the blank substrate (simply DMSO). Prism software package (GraphPad Software, San Diego Calif., USA) was used to calculate IC50 value and the curve.

The target in another series is ROCK1 (Homo sapiens (Human), UniProt Q13464). The experiment in a line: In vitro inhibitory activity against ROCK protein kinase (33P-ATP filter-binding), ROCK1. As to conditions: 1 nM ROCK protein kinase, 20 μM Long S6 Kinase substrate peptide. In kind it is biochemical. Here is the method: as §1, §2, §3, §4, §5
ROCK1, sequence (Q13464 whole entry): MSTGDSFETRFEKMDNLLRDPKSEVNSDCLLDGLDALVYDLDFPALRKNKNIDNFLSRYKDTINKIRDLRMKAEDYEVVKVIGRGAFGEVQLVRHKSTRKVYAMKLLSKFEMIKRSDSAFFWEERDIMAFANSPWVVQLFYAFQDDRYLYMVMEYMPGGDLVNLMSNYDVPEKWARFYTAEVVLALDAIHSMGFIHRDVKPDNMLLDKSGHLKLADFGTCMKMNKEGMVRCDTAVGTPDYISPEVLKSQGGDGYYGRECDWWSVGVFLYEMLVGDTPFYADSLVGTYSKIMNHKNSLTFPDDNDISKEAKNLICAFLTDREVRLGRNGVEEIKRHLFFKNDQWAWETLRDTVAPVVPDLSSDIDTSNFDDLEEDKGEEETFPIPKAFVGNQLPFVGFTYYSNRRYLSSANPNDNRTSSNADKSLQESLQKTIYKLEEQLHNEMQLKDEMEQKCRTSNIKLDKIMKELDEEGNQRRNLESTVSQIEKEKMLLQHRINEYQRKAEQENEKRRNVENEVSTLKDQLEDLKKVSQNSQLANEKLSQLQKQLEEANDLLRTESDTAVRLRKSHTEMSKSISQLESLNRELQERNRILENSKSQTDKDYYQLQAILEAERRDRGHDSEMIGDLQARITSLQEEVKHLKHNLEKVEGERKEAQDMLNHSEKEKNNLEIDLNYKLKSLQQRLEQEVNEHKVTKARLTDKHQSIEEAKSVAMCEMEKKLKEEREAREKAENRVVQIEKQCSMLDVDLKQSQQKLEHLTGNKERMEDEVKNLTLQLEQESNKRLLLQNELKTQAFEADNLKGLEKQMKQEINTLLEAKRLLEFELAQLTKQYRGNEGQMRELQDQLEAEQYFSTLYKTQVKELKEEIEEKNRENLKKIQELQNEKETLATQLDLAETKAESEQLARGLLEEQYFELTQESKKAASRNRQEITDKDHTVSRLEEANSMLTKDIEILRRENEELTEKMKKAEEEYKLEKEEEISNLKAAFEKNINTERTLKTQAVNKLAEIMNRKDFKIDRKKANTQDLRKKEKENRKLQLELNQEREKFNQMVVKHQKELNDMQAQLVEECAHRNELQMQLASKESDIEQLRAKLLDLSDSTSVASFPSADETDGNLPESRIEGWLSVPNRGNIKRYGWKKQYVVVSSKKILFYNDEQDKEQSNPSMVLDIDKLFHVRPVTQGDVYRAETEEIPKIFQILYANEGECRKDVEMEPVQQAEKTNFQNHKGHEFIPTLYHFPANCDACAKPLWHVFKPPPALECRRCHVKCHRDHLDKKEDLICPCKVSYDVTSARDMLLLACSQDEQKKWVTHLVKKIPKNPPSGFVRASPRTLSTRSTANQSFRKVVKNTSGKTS
Series [1] is described as follows: Pharmacokinetics in SD rats (intravenous injection and oral administration). It counts as in vivo. As to conditions: rat, plasma, male SD rats; for clearance / half-life / Vd: intravenous 1 mg/kg; for clearance: read-out: Clearance rate CL; for half-life: read-out: Half-life T1/2 (IV) (converted); for Vd: read-out: Tissue distribution Vdss; for bioavailability: oral 2 mg/kg vs intravenous 1 mg/kg, read-out: Bioavailability F; for AUC(0-t) / Cmax: oral 2 mg/kg; for AUC(0-t): read-out: Area under the drug-time curve AUC0-last PO; for Cmax: read-out: Peak concentration Cmax. Here is the method:
4. Evaluation of the Pharmacokinetics of the Compound
Experimental purpose: to study the pharmacokinetics of the compounds in SD rats in vivo
SD rat (male, 7 to 10 weeks old, WTLH/SLAC)
The rodent pharmacokinetic characteristics of the compounds after intravenous injection and oral administration were tested by standard protocols. In the experiment, the candidate compounds were formulated into 0.2 mg/mL clear solutions and were given to the rats by a single intravenous injection and oral administration. The vehicles of the intravenous injection and oral administration were both 5% DMSO/95% (10% hydroxypropyl P-cyclodextrin) aqueous solution. This project used four male SD rats and two of them were administered by intravenous injection at a dosage of 1 mg/kg, plasma samples were collected at 0.0833, 0.25, 0.5, 1, 2, 4, 6, 8, and 24 hours after administration, the other two rats were administered orally and intragastrically at a dosage of 2 mg/kg, plasma samples were collected at 0.25, 0.5, 1, 2, 3, 4, 6, 8, 24 hours after administration. The whole blood samples were collected within 24 hours and centrifuged at 3000 g for 15 minutes, and the supernatants were separated to give plasma samples. The plasma samples were added with an acetonitrile solution containing internal standard to precipitate protein, mixed thoroughly and centrifuged, and the supernatants were taken for injection. The blood drug concentration was quantitatively analyzed by LC-MS/MS analysis method, and the pharmacokinetic parameters (such as peak concentration (Cmax), clearance rate (CL), half-life (T1/2), […] (Vdss), area under the drug-time curve (AUC0-last), and bioavailability (F), etc.) were calculated.

With `COc1cccc(C(CCN)NC(=O)c2cccc(-c3ccc4[nH]ncc4c3)c2)c1` (stereo not drawn) [Compound 7], the IC50 (as a rule, the concentration that gives 50% inhibition) at ROCK2 amounted to 4 nM; at ROCK1 it was 24 nM.

Consider `NCC(NC(=O)c1cccc(-c2ccc3[nH]ncc3c2)c1)c1cccc(F)c1` (stereo not drawn) [Compound 23], for which the IC50 came to 7 nM at ROCK2 and 29 nM on ROCK1.

With `COc1cccc(C(CN)NC(=O)c2cccc(-c3ccc4[nH]ncc4c3)c2)c1` (stereo not drawn) [Compound 9], the IC50 at ROCK2 turned out to be 4 nM; at ROCK1 it was 25 nM.

As to `COc1cccc(C(CCO)NC(=O)c2cncc(-c3ccc4[nH]ncc4c3)c2)c1` (stereo not drawn) [Compound 3], the IC50 at ROCK2 turned out to be 11 nM; at ROCK1 it was 765 nM.

Take `COc1cccc(C(CN)NC(=O)c2cc(-c3ccc4[nH]nc(C)c4c3)ccn2)c1` (stereo not drawn) [Compound 40]: the IC50 on ROCK2 was 4 nM. This molecule registered an IC50 at ROCK1 of 57 nM. For the same molecule, in series [1], the clearance came out at 23.4 mL/min/kg; the half-life was 215 min; the Vd came to 6 L/kg; the bioavailability (usually the share of a dose that reaches the circulation, judged against a reference dose that is usually intravenous) is 21%. For the same molecule, in series [1], the AUC(0-t) amounted to 0.758 µM·h and the Cmax was found to be 117 nM.

For the molecule `COc1cccc(C(CO)NC(=O)c2cccc(-c3ccc4[nH]nc(F)c4c3)c2)c1` (stereo not drawn) [Compound 26], the IC50 at ROCK2 stood at 16 nM. This molecule also returned an IC50 at ROCK1 of 113 nM. Further, in series [1], the clearance was 14 mL/min/kg, the half-life is 150 min, the Vd was 1.72 L/kg and the bioavailability stood at 51%. In addition, in series [1], the AUC(0-t) worked out at 3.04 µM·h and the Cmax came out at 752 nM.

`COc1cccc(C(CN2CCCC2)NC(=O)c2cccc(-c3ccc4[nH]ncc4c3)c2)c1` (stereo not drawn) [Compound 14]: the IC50 turned out to be 8 nM at ROCK2 and 103 nM at ROCK1.

With `O=C(NC(CN1CCCC1)c1cccc(F)c1)c1cccc(-c2ccc3[nH]ncc3c2)c1` (stereo not drawn) [Compound 24], the IC50 on ROCK2 was determined as 14 nM; at ROCK1, 126 nM.

Consider `COc1cccc(C(CCO)NC(=O)c2ccnc(-c3ccc4[nH]ncc4c3)c2)c1` (stereo not drawn) [Compound 1], for which the IC50 on ROCK2 amounted to 21 nM; on ROCK1 it was 1640 nM.

As to `COc1cccc(C(CO)NC(=O)c2cccc(-c3ccc4[nH]ncc4c3)c2)c1` (stereo not drawn) [Compound 5], the IC50 stood at 6 nM on ROCK2 and 33 nM on ROCK1.

Consider `O=C(NC(CO)c1cc(F)ccc1F)c1cccc(-c2ccc3[nH]ncc3c2)c1` (stereo not drawn) [Compound 16], for which the IC50 at ROCK2 is 26 nM; at ROCK1, 259 nM.

Turning to `O=C(NC(CO)c1cccc(F)c1)c1cccc(-c2ccc3[nH]ncc3c2)c1` (stereo not drawn) [Compound 22], the values for the IC50 at ROCK2 and on ROCK1 were 6 nM and 52 nM, respectively.

`COCCC(NC(=O)c1cccc(-c2ccc3[nH]ncc3c2)c1)c1cccc(OC)c1` (stereo not drawn) [Compound 31]: the IC50 on ROCK2 stood at 20 nM; on ROCK1, 223 nM.

`COc1cccc(C(CN(C)C)NC(=O)c2cccc(-c3ccc4[nH]ncc4c3)c2)c1` (stereo not drawn) [Compound 10]: the IC50 was found to be 6 nM on ROCK2 and 79 nM at ROCK1.

As for `COc1cccc(C2(NC(=O)c3cccc(-c4ccc5[nH]nc(C)c5c4)c3)CCNC2)c1` (stereo not drawn) [Compound 44], the half-maximal inhibitory concentration (IC50) came to 4 nM at ROCK2 and 106 nM on ROCK1.

With `COc1cccc(C(CN)NC(=O)c2cccc(-c3ccc4[nH]nc(C)c4c3)c2)c1` (stereo not drawn) [Compound 30], the IC50 on ROCK2 was found to be 3 nM; at ROCK1 it was 43 nM.

On to `COc1cccc(C(CN)NC(=O)c2cccc(-c3cc(OC)c4[nH]ncc4c3)c2)c1` (stereo not drawn) [Compound 71], for which the IC50 at ROCK2 was 9 nM; at ROCK1, 758 nM.

As for `COc1cccc(C(CCO)NC(=O)c2cccc(-c3ccc4[nH]ncc4c3)c2)c1` (stereo not drawn) [Compound 2], the results for the IC50 on ROCK2 and on ROCK1 were less than 1 nM and 79 nM, respectively.

Take `COc1cccc(C(CN)NC(=O)c2cc(CN3CCCC3)cc(-c3ccc4[nH]nc(F)c4c3)c2)c1` (stereo not drawn) [Compound 58]: the 50% inhibitory concentration (IC50) at ROCK2 was 48 nM; on ROCK1, 1610 nM.

As for `COc1cc(C(=O)NC(CN)c2cccc(OC)c2)cc(-c2ccc3[nH]nc(F)c3c2)c1` (stereo not drawn) [Compound 53], the IC50 on ROCK2 turned out to be 20 nM; on ROCK1, 1090 nM.

In the case of `COc1cccc(C(CN2CCNCC2)NC(=O)c2cccc(-c3ccc4[nH]nc(F)c4c3)c2)c1` (stereo not drawn) [Compound 55], the IC50 was 51 nM at ROCK2 and 4120 nM on ROCK1.

`CNCC(NC(=O)c1cccc(-c2ccc3[nH]nc(C)c3c2)c1)c1cccc(OC)c1` (stereo not drawn) [Compound 65]: the IC50 was determined as 4 nM on ROCK2 and 138 nM at ROCK1.

As for `Cc1cccc(C(CN)NC(=O)c2cc(-c3ccc4[nH]nc(C)c4c3)ccn2)c1` (stereo not drawn) [Compound 67], the IC50 came out at 22 nM on ROCK2 and 336 nM on ROCK1.

`Cc1n[nH]c2ccc(-c3cccc(C(=O)NC(CO)c4cccc(F)c4)c3)cc12` (stereo not drawn) [Compound 59]: the values for the concentration for half-maximal inhibition (IC50) at ROCK2 and on ROCK1 were 16 nM and 94 nM, respectively.

For the molecule `COc1cc(C(=O)NC(CN)c2cccc(OC)c2)cc(-c2ccc3[nH]nc(C)c3c2)c1` (stereo not drawn) [Compound 52], the results for the IC50 at ROCK2 and at ROCK1 were 10 nM and 182 nM, respectively.

For `COc1cccc(C(CCN(C)C)NC(=O)c2cccc(-c3ccc4[nH]ncc4c3)c2)c1` (stereo not drawn) [Compound 8], the IC50 came to 10 nM on ROCK2 and 166 nM at ROCK1.

Turning to `COc1cccc(C(CN)NC(=O)c2cccc(-c3ccc4[nH]nc(N)c4c3)c2)c1` (stereo not drawn) [Compound 29], the IC50 at ROCK2 turned out to be 7 nM; at ROCK1, 65 nM.

Consider `COc1cccc(C(CO)NC(=O)c2ccc(F)c(-c3ccc4[nH]ncc4c3)c2)c1` (stereo not drawn) [Compound 11], for which the 50% inhibitory concentration (IC50) on ROCK2 was 5 nM; on ROCK1, 79 nM.

Regarding `COc1cccc(C(CN2CCNCC2)NC(=O)c2cccc(-c3ccc4[nH]nc(C)c4c3)c2)c1` (stereo not drawn) [Compound 56], the IC50 turned out to be 44 nM on ROCK2 and 2300 nM at ROCK1.

As to `COc1cccc(C2(NC(=O)c3cc(-c4ccc5[nH]nc(C)c5c4)ccn3)CCNC2)c1` (stereo not drawn) [Compound 46], the IC50 at ROCK2 was determined as 8 nM; on ROCK1 it was 267 nM.

Take `COc1cccc(C(CN)NC(=O)c2cc(-c3ccc4[nH]nc(C)c4c3)cc3cccnc23)c1` (stereo not drawn) [Compound 34]: the half-inhibitory concentration (IC50) on ROCK2 worked out at 17 nM; at ROCK1 it was 1430 nM.

`COc1cccc(C2(NC(=O)c3cccc(-c4ccc5[nH]nc(F)c5c4)c3)CCNC2)c1` (stereo not drawn) [Compound 45]: the results for the IC50 at ROCK2 and at ROCK1 were 19 nM and 1270 nM, respectively.

As for `COc1cccc(C(CNC(C)C)NC(=O)c2cccc(-c3ccc4[nH]nc(C)c4c3)c2)c1` (stereo not drawn) [Compound 38], the IC50 on ROCK2 is 14 nM; on ROCK1, 75 nM.

With `NCC(NC(=O)c1cccc(-c2ccc3[nH]nc(F)c3c2)c1)c1cccc(F)c1F` (stereo not drawn) [Compound 62], the half-inhibitory concentration (IC50) was 48 nM on ROCK2 and 289 nM on ROCK1.

In the case of `COc1cccc(C(CO)NC(=O)c2cc(F)cc(-c3ccc4[nH]ncc4c3)c2)c1` (stereo not drawn) [Compound 12], the results for the IC50 at ROCK2 and on ROCK1 were 12 nM and 257 nM, respectively.

Consider `COc1cccc(C(CN)NC(=O)c2cc(-c3ccc4[nH]nc(F)c4c3)ccc2OC(F)F)c1` (stereo not drawn) [Compound 48], for which the values for the IC50 at ROCK2 and at ROCK1 were 9 nM and 84 nM, respectively.

Turning to `COc1cccc(C(CN)NC(=O)c2cc(-c3ccc4[nH]nc(C)c4c3)ccc2OC(F)F)c1` (stereo not drawn) [Compound 47], the results for the IC50 on ROCK2 and at ROCK1 were 12 nM and 67 nM, respectively.

Regarding `COc1cccc(C(CN2CCCC2)NC(=O)c2cccc(-c3ccc4[nH]nc(C)c4c3)c2)c1` (stereo not drawn) [Compound 37], the 50% inhibitory concentration (IC50) at ROCK2 was found to be 7 nM; at ROCK1, 290 nM.

With `COc1cccc(C(CN)NC(=O)c2cc(CN3CCCC3)cc(-c3ccc4[nH]nc(C)c4c3)c2)c1` (stereo not drawn) [Compound 39], the IC50 on ROCK2 was 15 nM; at ROCK1, 429 nM.
